Entries after “also recorded” stand apart in the source; their conditions may differ.
Legend:
[1] = tested on: S. aureus (Staphylococcus aureus ATCC#6538); format: cell-based
[2] = tested on: Staphylococcus aureus; format: cell-based; details: pH 7
[3] = 10 ml of 5 wt % stock solution + 100 microliters acidified silver chloride, ceramic cylinder

| Compound | rate of kill / biocide efficacy (in words) [1] | biocide efficacy (in words) [2] | gas formation on the test cylinder [3] |
| --- | --- | --- | --- |
| furoyl chlorate | excellent rate of kill; also recorded: excellent biocide efficacy | no antimicrobial efficacy |  |
| OO [hydrogen peroxide] |  |  | slow formation of gas |
